The values that follow come from patent publication US20100189772A1, “Compositions of TLR ligands and antivirals” (COLEY PHARMACEUTICAL GROUP, INC, priority 2006, published 2010).

The IC50 is the concentration needed to halve the response being measured.

The subject of data set [1] is Human PBMC. In words: Effect of Ribavirin on CpG ODN-induced cytokines in human PBMC co-culture. Format: cell-based. To be noted: for IC50: Homo sapiens, PBMC, calculated IC50 upon addition of Ribavirin to cultures containing 1 μM SEQ ID NO: 13. The method, then: (§1) Cell purification Peripheral blood buffy coat preparations from healthy human donors were obtained from the Blood Bank of the University of Düsseldorf (Germany) and PBMC were purified by centrifugation over Ficoll-Hypaque (Sigma). Cells were cultured in a humidified incubator at 37° C. in RPMI 1640 medium supplemented with 5% (v/v) heat inactivated human AB serum (BioWhittaker) or 10% (v/v) heat inactivated FCS, 2 mM L-glutamine, 100 U/ml penicillin and 100 μg/ml streptomycin (all from Sigma).
(§2) Cytokine detection PBMC were resuspended at a concentration of 5×10^6 cells/ml and added to 96 well round-bottomed plates (250 μl/well). PBMC were incubated with various ODN, ORN or nucleoside concentrations and culture supernatants (SN) were collected after the indicated time points. If not used immediately, SN were stored at −20° C. until required. For inhibitory experiments, cells were stimulated with the indicated TLR ligand concentration and nucleoside or ORN added. In some experiments, the second modified ORN was added 1 h after the start of the cell culture.
(§3) Amounts of cytokines in the SN were assessed using a commercially available ELISA Kit for IL-12p40 (from BD Biosciences, Heidelberg, Germany), IFN-γ and TNF-α (from Diaclone, Besancon, France) or an in-house ELISA for IFN-α developed using commercially available antibodies (PBL, New Brunswick, N.J., USA). For analysis of a broad set of cytokines and chemokines, multiplex analysis with a luminex system from Bio-Rad (Munich, Germany) and Multiplex kits from Biosource (Solingen, Germany) was performed.
The observations were particularly noted at lose doses of Ribavirin.

The next data set concerns T cell IFN-γ production. In words: In vivo treatment of mice with CpG ODN and/or RBV, ex vivo anti-CD3 induced IFN-gamma production of inguinal lymph node cells (ELISA). The note with it: for T cell IFN-γ production ex-vivo after in vivo treatment with a single agent: SEQ ID NO. 14 100 micrograms SC or RBV 0.5 mg/kg IP alone, lymph node Day 6, ELISA Day 8, FIG. 4. The procedure:
(§4) We repeated the experiment with a lower dose of RBV in vivo (0.5 mg/kg IP).
(§5) Mice were injected with SEQ ID NO. 14 (100 micrograms SC), RBV (0.5 mg/kg IP) or SEQ ID NO. 14 and RBV. RBV was administered in vivo either at day 0 or day 5 and CpG was administered at day O, Samples were isolated at Day 6 from the inguinal lymph node and maintained in medium on anti-CD3 coated plated in the presence of 1-16 μM RBV. On Day 8 an ELISA assay was performed to detect IFN-gamma.
Background: In an ELISA, binding on a coated surface is turned into a signal by an enzyme label.

Data set [2] concerns CD3-mediated IFN-γ production. In words: Ex vivo anti-CD3 stimulation of lymph node cells in the presence of RBV, IFN-gamma ELISA. The class given is cell-based, Mice. The method, then: as §4, §5
The ex vivo effect of RBV on CD3-mediated IFN-γ production independently of prior ODN/RBV treatment was examined. Similar to the data described above, low concentrations of RBV in vitro increased IFN-γ levels independently of previous in vivo treatments (FIG. 5A).

In data set [3] the test system is bone marrow (BM) derived dendritic cells (DCs). In words: Cytokine production of bone marrow derived dendritic cells treated with SEQ ID NO. 14 and/or RBV. Format: cell-based. The method, then: Similar experiments were performed using bone marrow (BM) derived dendritic cells (DCs). BM-derived DC maintained in GM-CSF were treated with SEQ ID NO. 14, RBV (1 μM, 5 μM, 10 μM, 100 μM, or 120 μM) or with SEQ ID NO. 14 and RBV. At 4, 24 and 72 hours samples were tested for cytokine, IL-10 (FIG. 6), IL-12p40 (FIG. 7A), IL-12p70 (FIG. 7B) and TNF (data not shown). No effects of RBV alone at 120 μM were observed. SEQ ID NO. 14 induced IL-12, IL-10 and TNF. RBV decreased IL-10 and TNF but increased IL-12 (at 72 h only). RBV decreased SEQ ID NO. […].

The subject of data set [4] is Human PBMC. In words: Cytokine induction by ORN in human PBMC (ELISA of supernatants). The class given is cell-based. To be noted: human PBMC (n=3); for IFN-alpha cytokine induction, 8-modified nucleotide at the ORN 5′ end: FIG. 3, compared to the unmodified ORN (SEQ ID NO:8 and 11); for IFN-alpha cytokine induction, effect of the position of 8-Oxo-rG: FIG. 2, versus control SEQ ID NO:8. The procedure: as §1, §2, §3
Human PBMC (n=3) were stimulated with 8-Oxo-rG (a C-8 substituted guanosine) modified ORN (SEQ ID NO:1-4) and an unmodified ORN (SEQ ID NO:8). Supernatants were collected and cytokines IFN-alpha (FIG. 1a), IL-12p40 (FIG. 1b) and TNF-alpha (FIG. 1c) were measured.
Human PBMC (n=3) were stimulated with the indicated ORN with a single 8-Oxo-rG at different positions of the ORN (SEQ ID NO:1-4) and the […] negative control (SEQ ID NO:8). Supernatants were collected and IFN-alpha measured.
Human PBMC (n=3) were stimulated with the indicated ORN with a single 8-Oxo-rG/Dg (SEQ ID NO:1, 5), 8-Bromo-dG (SEQ ID NO:7) or Immunosine (Isatoribine) (SEQ ID NO:6) (with a 5′-5′ linkage) at the 5′ end of the ORN and IFN-alpha measured. […] Similar data were obtained for 8-Bromo-rG (data not shown). In addition, even the linkage of a 8-modified dA or rA (data not shown) results in an, although only slight increase of the cytokine induction.

A further data set has as its system C26 SC mouse model. The experiment in a line: C26 SC mouse cancer model, survival. The class given is in vivo. The note with it: 100 micrograms ODN intra/peri tumor at days 7, 14, 21; 0.5 mg/kg RBV IP on same days; as of days 30-40; FIG. 8. The method, then: C26 SC mouse model was treated with SEQ ID NO. 14 and RBV (100 micrograms ODN intra/peri tumor at days 7, 14, 21 and 0.5 mg/kg RBV IP on same days).

[5] abbreviates: human PBMC stimulated with CpG ODN (SEQ ID NO:15 as printed), increasing doses of Ribavirin.
Setting [6] is: SEQ ID NO. 14 alone, BM-derived DC in GM-CSF.

Read-outs that look alike come from different tables or passages of the source.

In the case of `NC(=O)c1ncn([C@@H]2O[C@H](CO)[C@@H](O)[C@H]2O)n1` [Ribavirin], the figures for the IC50 in the data set with Human PBMC [1] (read-out: IC50 IFN-alpha), with Human PBMC [1] (read-out: IC50 IL-6) and in the data set on Human PBMC [1] (read-out: IC50 IL-10) were 1000 µM, 320 µM and 58 µM, respectively. Further, the “effect on the CpG-induced IL10 induction” value with Human PBMC [1] (setting [5]) was “suppressive effect”. Moreover, the “suppressive effect with respect to IFN-alpha” value with Human PBMC [1] (setting [5]) is given as “not observed”. Besides, the “effect of RBV on IFN-γ production when CpG ODN was also injected” value in the data set with T cell IFN-γ production (RBV 0.5 mg/kg IP with SEQ ID NO. 14 100 micrograms SC, FIG. 4B) is reported as “greatly enhanced”. In addition, in the data set with T cell IFN-γ production, the “T cell IFN-γ production ex-vivo after in vivo treatment with a single agent” value was “small effect”. In addition, in the data set with T cell IFN-γ production (initial experiment, 10 mg/kg intraperitoneal (IP) RBV), the “ex vivo IFN-γ CD3-induced production after in vivo RBV” value was “no effect in vivo of RBV and possibly even a slight decrease”. In addition, the “IFN-γ production, ex vivo anti-CD3 stimulation in the presence of RBV” value in data set [2] (initial experiment, only at rather low concentrations of RBV (1-5 μM)) is given as “increase IFN-γ production”. The “CD3-mediated IFN-γ levels, RBV in vitro” value in data set [2] (low concentrations of RBV in vitro, independently of previous in vivo treatments, FIG. 5A) is on record as “increased”. Besides, in data set [3] (BM-derived DC, FIG. 7A), the “effect of RBV on SEQ ID NO. 14-induced IL-12p40” value is on record as “decreased”. The “effect of RBV on SEQ ID NO. 14-induced IL-12p70” value in data set [3] (BM-derived DC, FIG. 7B) is given as “increased IL-12p70 (slightly)”. The “effect of RBV on SEQ ID NO. 14-induced IL-10” value in data set [3] (BM-derived DC, RBV 1-120 μM with SEQ ID NO. 14, FIG. 6) is “decreased”. In addition, in data set [3] (BM-derived DC, RBV with SEQ ID NO. 14, at 72 h only), the “effect of RBV on IL-12” value is “increased”. Moreover, in data set [3] (BM-derived DC, RBV with SEQ ID NO. 14, data not shown), the “effect of RBV on TNF” value is listed as “decreased”. Also, the “cytokines (IL-10, IL-12p40, IL-12p70, TNF), RBV alone” value in data set [3] (RBV alone at 120 μM, 4, 24 and 72 hours) is reported as “No effects”.
Consider “O*rU*rU*rG*rU*rG*rU (8-oxo-dG at 5' end, phosphorothioate linkages, as printed in the source, key not given here) [SEQ ID NO:5, ORN with a single 8-Oxo-rG/Dg at the 5′ end]”, for which the “IFN-alpha cytokine induction, 8-modified nucleotide at the ORN 5′ end” value (“IFN-alpha cytokine induction … at the ORN 5′ end” for short) with Human PBMC [4] is listed as “increased cytokine induction”.
“rO*rU*rU*rG*rU*rG*rU (8-oxo-rG, phosphorothioate linkages, as printed in the source, key not given here) [SEQ ID NO:3, ORN with a single 8-Oxo-rG at the 5′ position]”: the “IFN-alpha cytokine induction, effect of the position of 8-Oxo-rG” value in the data set on Human PBMC [4] is listed as “increased cytokine induction”.
As for “iIM*rU*rU*rG*rU*rG*rU (5' isatoribine via 5'-5' linkage, phosphorothioate, as printed in the source, key not given here) [SEQ ID NO:6, ORN with Immunosine (Isatoribine) (with a 5′-5′ linkage) at the 5′ end]”, in the data set on Human PBMC [4], the “IFN-alpha cytokine induction … at the ORN 5′ end” value is “increased cytokine induction”.
As to “TCCATGACGTTCCTGATGC (chemistry not given here) [SEQ ID NO. 14, CpG ODN]”, the “T cell IFN-γ production ex-vivo after in vivo treatment with a single agent” value with T cell IFN-γ production is “increased”. For the same molecule, in data set [3] (setting [6]), the IL-10 induction entry was “induced”, the IL-12 induction result is “induced” and the TNF induction entry is recorded as “induced”. In the data set on C26 SC mouse model, the survival entry is on record as “prolonged survival”.
rO*rU*rU*rO*rU*rO*rU [SEQ ID NO:1]: in the data set with Human PBMC [4], the “IFN-alpha cytokine induction, effect of the position of 8-Oxo-rG” value is “increased cytokine induction” and the “IFN-alpha cytokine induction … at the ORN 5′ end” value was “increased cytokine induction”.
